Patent US7470690B2, “4-(2-Fluorophenyl)-6-methyl-2-(1-piperazinyl)thieno[2,3-D)pyrimidine in the treatment of functional bowel disorder” (Dynogen Pharmaceuticals, Inc., priority 2002, dated 2008)

Test system: male Sprague-Dawley rats
Assay: Inhibition of the reflex depressor response to colorectal distension in anaesthetised rats
Type: in vivo, rat
Details: for Fall in arterial blood pressure (mean absolute decrease in mean arterial pressure, standard error of mean in brackets) evoked by distension of the balloon: following MCI-225 3 mg/kg i.v.
Source text: The data on which this invention is based will now be described. In a study using intact animals, the ability of a drug to inhibit the reflex depressor response to colorectal distension can be assessed. In this model, an inhibition of the reflex indicates modulation of visceral nociceptive neurotransmission and, therefore, the use of the drug in functional bowel disease (e.g. IBS); see Kozlowski et al, 2000, Gut 46, 474-480. Allodynia and visceral pain are important components of functional bowel disease.
Experiments were performed on male Sprague-Dawley rats (250-300 g). Anaesthesia was induced with isoflurane (2.5% in oxygen) and maintained with alpha chlorolose (80 mg/kg i.v.). The left carotid artery was cannulated for the measurement of blood pressure and heart rate and the left jugular vein cannulated for drug administration. A tracheal cannula was implanted for artificial respiration if required. A 10 mm long latex balloon was inserted intrarectally so that the tip of the balloon was 20 mm from the anal verge (Kozlowski et al, supra). The balloon was connected via a double lumen cannula to a pressure transducer and also to a saline-filled syringe for inflation/deflation of the balloon. Throughout the experiment, body temperature was kept constant at 36-38 C using a homeothermic blanket.
Once stable baseline parameters were obtained (approximately after 20 minutes), the balloon was rapidly inflated with increasing volumes of saline (0.5-2.5 ml) for 30 seconds at 5 minute intervals, and the resultant change in blood pressure recorded. Three distinct response curves were constructed, with a 10 minute stabilisation period between each curve. In one group of animals, 10 minutes prior to the commencement of the final distension response curve, a single bolus of MCI-225 (3 mg/kg) was administered intravenously; in a second group of animals, a single bolus dose of vehicle was administered. The effect of MCI-225 and vehicle was determined by analysing the changes in colorectal distension that evoked depressor response.

Structure (SMILES): Cc1cc2c(-c3ccccc3F)nc(N3CCNCC3)nc2s1.Cl.O [MCI-225, 4-(2-Fluorophenyl)-6-methyl-2-(1-piperazinyl)thieno[2,3-D]pyrimidine monohydrate hydrochloride]
- Effect on distension-induced falls in blood pressure (in words) (3 mg/kg i.v., colorectal balloon distension): inhibited the distension-induced falls in blood pressure
- Fall in arterial blood pressure (mean absolute decrease in mean arterial pressure, standard error of mean in brackets) evoked by distension of the balloon (0.5 ml balloon volume, n=6): 2.2 (1.65) mmHg
- Fall in arterial blood pressure (mean absolute decrease in mean arterial pressure, standard error of mean in brackets) evoked by distension of the balloon (1.0 ml balloon volume, n=6): 6.3 (2.6) mmHg
- Fall in arterial blood pressure (mean absolute decrease in mean arterial pressure, standard error of mean in brackets) evoked by distension of the balloon (1.5 ml balloon volume, n=6): 10.6 (3.9) mmHg
- Fall in arterial blood pressure (mean absolute decrease in mean arterial pressure, standard error of mean in brackets) evoked by distension of the balloon (2.0 ml balloon volume, n=6, p less than 0.01 vs before drug (paired t test)): 15.3 (5.4) mmHg
- Fall in arterial blood pressure (mean absolute decrease in mean arterial pressure, standard error of mean in brackets) evoked by distension of the balloon (2.5 ml balloon volume, n=5, p less than 0.05 vs before drug (paired t test)): 24.6 (7.3) mmHg
